“Also recorded” adds a separate entry of the source.
Legend:
[1] = test system: WHIM mice; conditions: gavaged daily 100 mg/kg for 1 or 3 weeks; cited from earlier work
[2] = mouse, in vivo; cited from earlier work
[3] = test system: peripheral WBC counts and subsets; test: Phase 1/2 trial of mavorixafor in combination with axitinib in advanced ccRCC: peripheral WBC counts; format: in vivo, human; conditions: mavorixafor 400 mg QD + axitinib
[4] = test system: peripheral WBC counts and subsets; test: Phase 1b trial of mavorixafor in combination with nivolumab in metastatic ccRCC: peripheral WBC counts; format: in vivo, human
[5] = test system: peripheral WBC counts and subsets; test: Phase 1b trial of mavorixafor in combination with ibrutinib in Waldenstrom's macroglobulinemia: peripheral WBC counts; format: in vivo, human; conditions: WM, interim analysis
[6] = test system: CVID B cells; test: Chemotaxis assay: PBMCs from a patient with CVID due to NFKB1 mutation; format: cell-based, human
Protocol: PBMCs from patients or healthy donors were resuspended in chemotaxis buffer (RPMI 1640 media containing 20 mM HEPES, L-glutamine, and 0.5% BSA) at 2.0×10^6 cells/mL. […] Chemotaxis was assayed immediately after treatment with drug by placing 1.0×10^5 cells in 100 μL in the upper chamber of a Transwell 24-well plate separated by a 6.5 mm insert with 3 μm pores (Corning Life Sciences, Corning, NY, USA) from the lower chamber containing 600 μL of buffer with the indicated concentration of CXCL12. After incubation for 2.5 hours at 37° C. in a 5% CO2 incubator, the cells that migrated into the lower chamber were collected by centrifugation and resuspended in the assay buffer. Cells were blocked using Human TruStain FcX (BioLegend, Inc) for 10 minutes at RT, and subsequently B lymphocyte subtyping was performed (Alexa Fluor® 488 Mouse anti-human CD19 IgG1, κ, HIB19, BioLegend, Cat #302219). A fixed number of flow cytometry counting beads (Precision Count Beads; BioLegend) were added to each sample.
Both migrated cells and counting beads were counted by flow cytometry (CytoFLEX). Data were analyzed using FCS Express software, and the total number of migrated cells was calculated, according to the counted and total number of beads present in the sample. Results are presented as percentage of migrated B cells out of the total number of B cells placed in the chemotaxis chamber.

[7] = test system: circulating white blood cells; conditions: 400-mg single-dose subject; cited from earlier work
[8] = test system: peripheral WBC counts and subsets; test: Long-term extension of phase 2 trial of mavorixafor in WHIM syndrome: WBC counts and infection rate; conditions: WHIM syndrome phase 2 extension
[9] = after 6 months' treatment (n=20)
[10] = after 6 months' (n=5) treatment
[11] = compared to screening values, after 4 weeks (n=8)
[12] = mavorixafor 300 or 400 mg QD, after 6 months' (n=5) treatment

Cc1cccnc1[C@@H]1CCC[C@H](c2nc3cccc(N4CCN(C)CC4)n3c2CO)N1C
IL-7 production and B cell development [1]: restored IL-7 production and B cell development
oral bioavailability [2]: orally bioavailable

mavorixafor
ALC ([3]; after 4 weeks (n=49)): 143 % of baseline
AMC ([3]; after 4 weeks (n=49)): 182 % of baseline
ANC ([3]; after 4 weeks (n=49)): 158 % of baseline
total WBC count ([3]; after 4 weeks (n=49)): 153 % of baseline
ALC [3, 9]: 139 % of baseline
AMC [3, 9]: 166 % of baseline
ANC [3, 9]: 171 % of baseline
total WBC count [3, 9]: 159 % of baseline
ALC ([4]; after 4 weeks (n=9)): 141 % of baseline
AMC ([4]; after 4 weeks (n=9)): 179 % of baseline
ANC ([4]; after 4 weeks (n=9)): 143 % of baseline
total WBC count ([4]; after 4 weeks (n=9)): 146 % of baseline
ALC ([4]; after 6 months (n=2)): 152 % of baseline
AMC ([4]; after 6 months (n=2)): 191 % of baseline
ANC ([4]; after 6 months (n=2)): 136 % of baseline
total WBC count ([4]; after 6 months (n=2)): 147 % of baseline
ALC [5, 10]: 106 % of baseline
AMC [5, 10]: 172 % of baseline
ANC [5, 10]: 192 % of baseline
total WBC count [5, 10]: 163 % of baseline
ALC [5, 11]: 219 % of baseline
AMC [5, 11]: 186 % of baseline
ANC [5, 11]: 170 % of baseline
total WBC count [5, 11]: 192 % of baseline
mavorixafor concentration effectively neutralizing the chemotaxis ([6]; CVID B cells cultured with 10 nm CXCL12, FIG. 1C): 0.1 µM
effect on enhanced chemotaxis toward CXCL12 ([6]; CVID patient B cells, FIG. 1C): dose-dependent normalization effect on chemotaxis; also recorded: normalizes enhanced chemotaxis
increase in the number of circulating white blood cells (Leukocytosis) [7]: 2.9 fold above baseline
annualized infection rate ([8]; after 40 months, baseline 5.6 (SD±3.13) events): 2.2 (SD±0.93) events
ALC [8, 12]: 239 % of baseline
AMC [8, 12]: 486 % of baseline
ANC [8, 12]: 652 % of baseline
total WBC count [8, 12]: 339 % of baseline
